Target: T1, ATGL and G0S2 (Homo sapiens, UniProt Q96AD5)
T1 construct: expressed in transfected cells; host or cells: HEK293 cells; NG-497 added to the lysates
Experiment: Co-immunoprecipitation of ATGL and G0S2
Format: binding
Details: NG-497 40 µM, HEK293 lysates, FLAG-ATGL and His-G0S2
Description: Fig. S2: Effect of NG-497 on the protein-protein interaction of ATGL and G0S2 investigated by co-immunoprecipitation.
HEK293 cells were co-transfected with FLAG-tagged ATGL and His-tagged G0S2 (both human). As controls, FLAG-tagged ATGL was co-expressed with His-LacZ, and His-tagged G0S2 with empty FLAG-vector (e-FLAG). (a) Protein expression of the indicated plasmid combinations was confirmed using anti-Xpress and anti-Flag antibodies. (b) Cell lysates were incubated with anti-FLAG M2 affinity beads in the presence or absence of NG-497 (40 µM). After extensive washing, bound proteins were eluted by boiling in SDS-containing sample buffer and subjected to Western blotting analysis. His-G0S2 was exclusively […]
Data are representative for two
(1 picture or pasted object on this page, not shown here)
Co-immunoprecipitation. HEK293 cells were co-transfected with the indicated plasmid combinations using Metafectene (#T020-5.0; Biontex, Germany) according to the manufacturer’s instructions. […]
Analysis of toxicity in HepG2 hepatocytes. […] Release of LDH into the medium was analyzed using the Cytotoxicity Detection Kit PLUS (LDH) (MilliporeSigma) according to the manufacturer’s instructions. Cytotoxicity was calculated as relative LDH release as compared to fully lysed cells. […]

T1 sequence (Q96AD5 whole entry): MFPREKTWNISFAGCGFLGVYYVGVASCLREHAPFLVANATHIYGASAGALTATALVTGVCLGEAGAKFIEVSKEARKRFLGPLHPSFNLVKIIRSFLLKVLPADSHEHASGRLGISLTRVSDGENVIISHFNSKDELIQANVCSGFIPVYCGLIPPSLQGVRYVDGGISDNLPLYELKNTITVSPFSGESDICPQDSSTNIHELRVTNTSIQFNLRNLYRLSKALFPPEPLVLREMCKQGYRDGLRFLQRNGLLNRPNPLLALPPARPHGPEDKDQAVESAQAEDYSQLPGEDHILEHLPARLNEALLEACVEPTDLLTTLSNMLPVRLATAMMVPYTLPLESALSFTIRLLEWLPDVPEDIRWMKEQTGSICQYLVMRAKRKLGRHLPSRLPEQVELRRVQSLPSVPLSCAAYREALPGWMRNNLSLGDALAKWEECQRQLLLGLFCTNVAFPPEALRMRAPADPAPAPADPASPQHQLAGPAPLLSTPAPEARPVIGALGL
T1 sequence (P27469 whole entry partner): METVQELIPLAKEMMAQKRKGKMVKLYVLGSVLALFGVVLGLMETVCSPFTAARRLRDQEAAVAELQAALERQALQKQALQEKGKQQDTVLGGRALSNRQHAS

With `CCOc1ccc(-c2cc(OC)cc(C(=O)OC(C)C)n2)cc1` [NG-497] the “G0S2 binding to ATGL (co-immunoprecipitation)” value was “increased G0S2 binding”.
